For 89 molecules, melting point results are on record in a melting point compilation (Tetko et al.; mined from patent text by program, amines drawn as free bases though some values may be those of a salt).

Structures are written as SMILES.

`N#Cc1cc(C(=O)NNC(=O)c2occ(-c3ccc(Cl)cc3)c2-c2ccc(Cl)cc2)ccc1O`: the melting point (in general, the temperature of the solid-liquid transition) is 190 to 191 °C. `Brc1n[nH]c2ccccc12` had a melting point of 136 °C.

As to `CCOC(=O)c1sc(Oc2ccc(OCc3ccc4ccccc4n3)cc2)c2c1CCc1cnn(C)c1-2`, the melting point lay within 269 to 270 °C. In turn, `CCCCCCN(Cc1ccc2ccccc2n1)C(Nc1ccc(OC)cc1OC)=C1C(=O)OC(C)(C)OC1=O` gave a melting point of 106 to 109 °C. In turn, `Cc1cccc(NC(=O)NCC(=O)N(CC(=O)OC(C)(C)C)c2cccc(C(F)(F)F)c2)c1` registered a melting point of 140 °C. Then `COc1ccc2c(c1)N(CCCN1CCC(CCO)CC1)c1cccc(S(C)(=O)=O)c1S2`, with 117 to 118 °C; and `CCCCCCCCOc1ccc2c(OC(C)=O)c3cc4ccccc4cc3c(OC(C)=O)c2c1`, with 107 to 111 °C.

Turning to `COC(=O)c1cc(-c2cccs2)cc(C)c1NS(=O)(=O)c1ccc(OC)cc1`, the melting point worked out at 91 °C.

`Cc1nc(N2CCc3ccc(F)cc3CC2)c([N+](=O)[O-])c(=O)[nH]1` had a melting point of over 200 °C. Then `COc1cc(C#N)c2nc(-c3ccc(OC)c(F)c3)cc(O)c2c1`, with 218 to 220 °C; and `CCCNc1nc(N)n[nH]1`, with 148 to 149 °C.

Consider `Cc1cc2ccccc2c(-c2ccccc2I)n1`, for which the melting point was in the range of 111 to 112 °C. Then `Oc1ccc(-c2nc3cc(O)c(Cl)cc3o2)cc1F`, with 197 to 199 °C. On to `O=c1c2cc(F)c(Cl)nc2n(-c2ccccc2F)c(=O)n1OCc1ccccc1`, for which the melting point lay within 199 to 200 °C.

The molecule `O=C(CC1CCCCC1)NC1CCCCC1` yielded a melting point of 164 to 165 °C. Turning to `CN(C)C(=O)c1cc2c(NCCc3ccccc3)ncnc2s1`, the melting point came out at 157 °C. For `CCCCCCCCCCCCCCCCC=Cc1ccc(O)c(C(=O)O)c1`, the melting point is 95 °C. `Nc1cc(Cl)c(Cl)c(Cl)c1N` had a melting point of 109 to 111 °C. For `O=S(=O)(c1cccc(F)c1)c1ccc2[nH]c3c(c2c1)CCNCC3`, the melting point was 153 to 156 °C. With `Cc1ccc2c(=O)[nH]c(=O)n(C(C)C)c2c1` the figure was 250 to 251 °C; with `CC(C)(C)CC(=O)Nc1ccc2oc3c(c2c1)CCCCCC3`, 157 to 158 °C.

In turn, `CC(Br)C(=C(C#N)C#N)c1ccccc1` (centres undefined) came in with a melting point of 103 to 104 °C. In turn, `CCOC(=O)c1nn(-c2ccc(C)cc2)nc1-c1ccccc1` returned a melting point of 74 to 75 °C. With `CNc1cc(NS(=O)(=O)c2ccc(C(C)(C)C)cc2)nc(NC)n1` the figure was 316 to 318 °C; with `COc1cc2c(cc1-c1cncs1)-c1c(-c3cncs3)c3c(n1CC2)C(=O)N(C(C)(C)C)CCOC3`, 254 to 255 °C. As to `CN1CCN(c2ccc(S(=O)(=O)Oc3cccc(F)c3)cc2)C1=O`, the melting point is 175 to 177 °C.

As for `NS(=O)(=O)c1cc2c(cc1Cl)C(=O)N(CCN1CCOCC1)C2=O`, the melting point fell in the range of 218 to 219 °C. Then `O=C(NCCCCN1CCC(Oc2cccc3ccccc23)CC1)c1ccc(-c2ccc(C(F)(F)F)cc2)cc1`, with 166 °C; and `Cc1ccc(C(=S)NCCCCCCCNC(=S)c2ccc(C)cc2)cc1`, with 181 to 182 °C.

`CN(Cc1cc(C(F)(F)F)cc(C(F)(F)F)c1)C(=O)c1c(Cl)nc2ccccc2c1-c1ccccc1` gave a melting point of 147 to 148 °C. With `COC(Oc1cc(Cl)c(Cl)c(Cl)c1)C(=O)O` (centres undefined) the figure was 101 to 104 °C.

`CCOC(=O)COc1cc(OCc2ccccc2)ccc1C#N` showed a melting point of 84 °C. In the case of `Cn1nc(S(N)(=O)=O)c2c(F)cccc21`, the melting point lay within 221 to 223 °C. On to `CCCCc1nc(CO)c(C(=O)NCC(=O)O)n1Cc1ccc(-c2ccccc2C(=O)O)cc1`, for which the melting point is over 110 °C. In turn, `COc1ccc(NCC2CCn3c(nc4ccccc43)S2)cc1` (centres undefined) displayed a melting point of 155 to 157 °C.

Take `COc1ccc2cccc(C(=O)C(=O)O)c2c1`: the melting point came out at 99 °C. The molecule `CCC(=O)Oc1c(OC)c(OC)c(OC(C)=O)c2ccc(Cl)cc12` had a melting point of 86 to 87 °C.

`CCCOc1ccccc1-c1nc2c(CCC)nn(C)c2c(=S)[nH]1` yielded a melting point of 111 to 112 °C. With `CC(C)(C)OC(=O)Nc1cc(N2CCOCC2)c(C#Cc2ccccc2)cc1[N+](=O)[O-]` the figure was 190 to 191 °C; with `S=C=Nc1cc(-c2nc(-c3ccco3)no2)ccc1Cl`, 131 to 132 °C; with `N=C(NS(=O)(=O)C=Cc1ccc([N+](=O)[O-])cc1)c1cccc([N+](=O)[O-])c1`, 230 to 232 °C. As for `CNC1(C)CN(c2cc3c(cc2F)c(=O)c2c(=O)[nH]sc2n3C2CC2)C1`, the melting point was 286 to 290 °C.

Consider `CCOCN1C(C)=C(C(=O)OC)C(c2cccc([N+](=O)[O-])c2)C(C(=O)OC)=C1C`, for which the melting point was 86 to 88 °C. `CCC(Oc1ccc([N+](=O)[O-])cc1)C(=O)NCc1ccccc1OC` (centres undefined) showed a melting point of 109 to 112 °C. With `Nc1ncc(S(=O)c2ccc(C(F)(F)F)cn2)s1` (centres undefined) the figure was 144 to 145 °C. The molecule `ON=Cc1ccc(-c2ccc(O)cc2)c2occc12` registered a melting point of 216 to 217 °C. `CCC1CC(=O)N(Cc2ccc(NS(C)(=O)=O)cc2)N=C1c1ccc(OC)c(OC)c1` (centres undefined) registered a melting point of 81 °C. For the molecule `CC(O)c1ccc(Cc2ccccc2CO)cc1` (centres undefined), the melting point was 96 to 97 °C. Molecule `O=C(O)c1ccc(F)cc1Sc1ccc(F)cc1` had a melting point of 209 to 218 °C. With `CC(C)(C)NC(=O)N(C(=O)C1CCC2C3CC=C4C=C(C(=O)O)CCC4(C)C3CCC12C)C(C)(C)C` (centres undefined) the figure was 118 to 120 °C; with `CC1OC(Sc2ccccc2)C(OCc2ccccc2)C(OC(=O)c2ccccc2)C1OC(=O)c1ccccc1` (centres undefined), 98 to 100 °C.

`Cn1nnnc1SCc1ccccn1` showed a melting point of 78 to 81 °C. Regarding `CC(Cn1cncn1)(O[Si](C)(C)C)c1ccc(F)cc1F` (centres undefined), the melting point lay within 51 to 53 °C. `N#Cc1ccc(NC(=O)c2cccc(OCc3cccc(F)c3F)c2)cc1` yielded a melting point of 149 to 150 °C. With `CC(C)(C)C(=O)c1cnn2cccnc12` the figure was 130 to 131 °C; with `COC(=O)CCc1[nH]c(Cc2ccc(OCc3nc(-c4ccccc4)oc3C)cc2)nc1-c1ccccc1`, 128 to 129 °C. Consider `NC(=O)c1cc2ccc(OCC(O)CCl)cc2o1` (centres undefined), for which the melting point lay in the range of 109 to 110 °C. In turn, `COc1cc(OC)c(C2=CCN(C)CC2)c(O)c1C(C)=O` returned a melting point of 143 to 144 °C. With `CC(=O)N(CCOc1ccc(CC2SC(=O)NC2=O)cc1)c1ncccn1` (centres undefined) the figure was 137 °C. In turn, `CCC[C@H]1CC[C@H](C(=O)Oc2ccc(-c3ccc(F)cc3)cc2)CC1` showed a melting point of 96 °C. As to `CC(O)(Cc1cncs1)c1ccc(Cl)cc1Cl` (centres undefined), the melting point came out at 164 °C. Consider `COC(=O)C(CC(F)(F)F)Nc1nc(-c2ccc(Br)cc2)cs1` (centres undefined), for which the melting point was 113 to 114 °C. With `CC1(C)SCN(CCCCN2CCN(c3nc4ccccc4s3)CC2)C1=O` the figure was 99.5 to 100 °C; with `O=C1CN(c2nccnc2[N+](=O)[O-])CCN1`, 178 to 179 °C.

Turning to `CON=C(Cl)c1ccccc1S(=O)(=O)NC(=O)Nc1nc(C)nc(OC)n1`, the melting point was in the range of 182 to 184 °C. On to `CN1CCN(c2cccc3c2C[C@H](N(C)C(=O)c2ccc(C(F)(F)F)cc2)CC3)CC1`, for which the melting point was 123 to 125 °C. `COc1cc2c(cc1OC)C(O)C(N1CCC(N3c4ccccc4NC3C)CC1)C2` (centres undefined) had a melting point of 255 to 256 °C.

Take `CCCS(=O)(=O)NC(=N[N+](=O)[O-])NCc1cnc(Cl)s1`: the melting point fell in the range of 105 to 107 °C. `CC1CN(C)CCC1Oc1cccc(NC(=O)c2ccc(F)cc2Cl)n1` (centres undefined) yielded a melting point of 155 to 160 °C. `O=C(O)c1ccc(-c2ccccc2O)cc1` came in with a melting point of 176 to 178 °C. Take `C[C@@H](n1cnc2cc(N(C)C)c(F)cc2c1=O)[C@](O)(Cn1cncn1)c1ccc(F)cc1F`: the melting point lay within 197 to 198 °C. Turning to `CC=NN(C(=O)c1ccc(C)cc1)c1ccc2c(c1)OCCO2`, the melting point lay in the range of 121 to 123 °C. For the molecule `COC12CC(C(C)COC(=O)c3[nH]c(C)cc3C)CN(C)C1Cc1cn(C)c3cccc2c13` (centres undefined), the melting point lay within 128 to 130 °C. In turn, `O=C(O)CCCCCCn1c(-c2ccccc2)nc(-c2ccccc2)c1-c1ccccc1` displayed a melting point of 149 to 150 °C. Turning to `Nc1cccc2cc(C(=O)N3CCc4ccccc4C3)cnc12`, the melting point fell in the range of 238 to 240 °C.

The molecule `Cc1cccc2cc(N3CCN(CCO)CC3)[nH]c(=O)c12` gave a melting point of 209 to 210 °C. Turning to `CC(Cc1cccc([N+](=O)[O-])c1)NC=O` (centres undefined), the melting point was in the range of 99 to 100 °C. For `COC(=O)c1cnc(N2CCN(CC3CC3)C2=O)s1`, the melting point was 124 to 126 °C. In turn, `O=C1N(c2ccccc2)N=C(Nc2ccccc2)C1(Br)Br` came in with a melting point of 190 °C.

Regarding `c1ccc(Cc2nc(-c3ccncc3)cs2)cc1`, the melting point is 88 to 89 °C. Consider `COC(=O)n1c(SCc2nccc(SCCN3CCOCC3)c2C)nc2ccccc21`, for which the melting point was in the range of 151 to 153 °C. Consider `Cc1cc(Oc2ncc(C(F)(F)F)cc2Cl)nn1C(=O)OC(C)(C)C`, for which the melting point was in the range of 90 to 92 °C. The molecule `O=C(c1ccc(Cl)c(Cl)c1)N1CCc2cc(S(=O)(=O)N3CCN(c4cccc(Cl)c4)CC3)ccc21` came in with a melting point of 174 to 175 °C. Then `CCC1(CC(=O)O)OCCc2nc(-c3ccccc3)sc21` (centres undefined), with 106 to 108 °C; and `O=C(O)C(=O)c1ccc(OCCOc2ccc(Oc3ccccc3)cc2)cc1`, with 124 to 126 °C; and `Cn1c2c(ccc1=O)C(=O)CCC2`, with 174 to 176 °C. Regarding `COc1cccc(NC(=O)NCC(=O)N(CC(=O)N2CCCC(C)(C)C2)c2ccccc2)c1`, the melting point turned out to be 200 °C. Then `CCCc1cc(F)c(C(=O)O)c([N+](=O)[O-])c1O`, with 128 to 129 °C. Regarding `Cc1nc2c(C)cccn2c(=O)c1CCN1CCC(c2noc3cc(F)ccc23)CC1`, the melting point worked out at 200 °C.
